Experimental data from patent US8563714B2, “Bridged spiro [2.4] heptane derivatives as ALX receptor and/or FPRL2 agonists” (Actelion Pharmaceuticals Ltd., priority 2009, dated 2013).

Experiments:
human FPRL2 = target: T1, human FPRL2 (Homo sapiens, UniProt P25089); assay: Intracellular calcium measurements (FLIPR), agonistic activity in HEK293-hFPRL2-Gα16 cells; type: cell-based; settings: Fluo-4 calcium FLIPR, normalized to GLY14-Humanin 100 nM
T1 construct: expressed in transfected cells; host or cells: HEK293 (HEK293-hFPRL2-Gα16)
T1 sequence (P25089 1-353): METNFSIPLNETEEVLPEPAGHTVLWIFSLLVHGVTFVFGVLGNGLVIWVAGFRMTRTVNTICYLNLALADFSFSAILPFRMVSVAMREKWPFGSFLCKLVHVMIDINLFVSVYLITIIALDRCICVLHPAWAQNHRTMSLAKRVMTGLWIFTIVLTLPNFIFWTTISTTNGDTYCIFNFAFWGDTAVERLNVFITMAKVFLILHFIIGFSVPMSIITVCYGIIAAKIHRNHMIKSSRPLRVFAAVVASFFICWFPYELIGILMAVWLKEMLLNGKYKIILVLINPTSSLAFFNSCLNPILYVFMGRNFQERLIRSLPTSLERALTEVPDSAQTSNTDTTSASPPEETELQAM
Summary of the method: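 Peak values after baseline subtraction are expressed relative to 100 nM Gly14-Humanin; compounds diluted in assay buffer from 10 mM DMSO stocks.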

human ALX receptor = target: T2, human ALX receptor (Homo sapiens, UniProt P25090); assay: Intracellular calcium measurements (FLIPR), agonistic activity in HEK293-hALXR-Gα16 cells; type: cell-based; settings: Fluo-4 calcium FLIPR, normalized to WKYMVm 10 nM
T2 construct: expressed in transfected cells; host or cells: HEK293 (HEK293-hALXR-Gα16)
T2 sequence (P25090 1-351): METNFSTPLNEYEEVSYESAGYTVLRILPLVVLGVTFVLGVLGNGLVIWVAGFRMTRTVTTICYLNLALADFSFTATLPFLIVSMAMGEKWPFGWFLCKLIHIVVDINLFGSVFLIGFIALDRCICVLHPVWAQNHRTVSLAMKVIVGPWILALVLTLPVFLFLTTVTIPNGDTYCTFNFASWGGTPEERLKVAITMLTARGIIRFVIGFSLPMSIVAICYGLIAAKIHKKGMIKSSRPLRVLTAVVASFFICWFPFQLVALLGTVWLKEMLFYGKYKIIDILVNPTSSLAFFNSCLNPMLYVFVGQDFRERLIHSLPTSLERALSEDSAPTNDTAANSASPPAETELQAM
Summary of the method: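 Agonist-induced calcium flux was recorded by FLIPR (488/540 nm) in HEK293-hALXR-Gα16 cells pre-loaded with Fluo-4 AM (1 μM, 60 min, 37°C). Peak signal above baseline, after subtracting buffer addition, was expressed relative to WKYMVm at 10 nM final.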

| Structure (SMILES) | EC50 (human FPRL2) [nM] | EC50 (human ALX receptor) [nM] |
| --- | --- | --- |
| O=C(NCCCCN1CCCC1)[C@H]1[C@H](C(=O)NCc2ccco2)[C@@H]2C=C[C@H]1C21CC1 (racemic) [Example 131, (5R*)—N^5-(Furan-2-yl-methyl)-(6R*)—N^6-(4-pyrrolidin-1-yl-butyl)-(4S*,7R*)-[4,7-ethenylene-spiro[2.4]heptane]-5,6-dicarboxamide] | 358 | 173 |
| O=C(NCCCCN1CCCC1)[C@H]1[C@H](C(=O)Nc2ccc(OC(F)(F)F)cc2)[C@@H]2C=C[C@H]1C21CC1 (racemic) [Example 133, (5R*)—N^5-(4-Trifluoromethoxyphenyl)-(6R*)—N^6-(4-pyrrolidin-1-yl-butyl)-(4S*,7R*)-[4,7-ethenylene-spiro[2.4]heptane]-5,6-dicarboxamide] | 122 | 263 |
| O=C(NCCCCN1CCCC1)[C@H]1[C@H](C(=O)NCCOc2ccccc2)[C@@H]2C=C[C@H]1C21CC1 (racemic) [Example 134, (5R*)—N^5-(2-Phenoxy-ethyl)-(6R*)—N^6-(4-pyrrolidin-1-yl-butyl)-(4S*,7R*)-[4,7-ethenylene-spiro[2.4]heptane]-5,6-dicarboxamide] | 612 | 319 |
| CC(C)CCNC(=O)[C@H]1[C@H](C(=O)NCCCCN2CCCC2)[C@H]2C=C[C@@H]1C21CC1 (racemic) [Example 135, (5R*)—N^5-(3-Methyl-butyl)-(6R*)—N^6-(4-pyrrolidin-1-yl-butyl)-(4S*,7R*)-[4,7-ethenylene-spiro[2.4]heptane]-5,6-dicarboxamide] | 224 | 352 |
| CCCCNC(=O)[C@H]1[C@H](C(=O)NCCCCN2CCCC2)[C@H]2C=C[C@@H]1C21CC1 (racemic) [Example 136, (5R*)—N^5-Butyl-(6R*)—N^6-(4-pyrrolidin-1-yl-butyl)-(4S*,7R*)-[4,7-ethenylene-spiro[2.4]heptane]-5,6-dicarboxamide] | 1180 | 365 |
| Cc1ccc(CNC(=O)[C@H]2[C@H](C(=O)NCCCCN3CCCC3)[C@H]3C=C[C@@H]2C32CC2)o1 (racemic) [Example 137, (5R*)—N^5-(5-Methyl-furan-2-yl-methyl)-(6R*)—N^6-(4-pyrrolidin-1-yl-butyl)-(4S*,7R*)-[4,7-ethenylene-spiro[2.4]heptane]-5,6-dicarboxamide] | 192 | 556 |
| Cc1nc2cc(NC(=O)[C@H]3[C@H](C(=O)NCCCCN4CCCC4)[C@H]4C=C[C@@H]3C43CC3)ccc2s1 (racemic) [Example 138, (5R*)—N^5-(2-Methyl-benzothiazol-5-yl)-(6R*)—N^6-(4-pyrrolidin-1-yl-butyl)-(4S*,7R*)-[4,7-ethenylene-spiro[2.4]heptane]-5,6-dicarboxamide] | 332 | 570 |
| O=C(NCCCCN1CCCC1)[C@H]1[C@H](C(=O)NCCc2ccccc2)[C@@H]2C=C[C@H]1C21CC1 (racemic) [Example 139, (5R*)—N^5-(2-Phenyl-ethyl)-(6R*)—N^6-(4-pyrrolidin-1-yl-butyl)-(4S*,7R*)-[4,7-ethenylene-spiro[2.4]heptane]-5,6-dicarboxamide] | 152 | 731 |
| CC(=O)CCCNC(=O)[C@H]1[C@H](C(=O)NCCCCN2CCCC2)[C@H]2C=C[C@@H]1C21CC1 (racemic) [Example 140, (5R*)—N^5-(4-oxo-pentyl)-(6R*)—N^6-(4-pyrrolidin-1-yl-butyl)-(4S*,7R*)-[4,7-ethenylene-spiro[2.4]heptane]-5,6-dicarboxamide] | 1310 | 748 |
| O=C(NCCCCN1CCCC1)[C@H]1[C@H](C(=O)Nc2cnc(Cl)nc2)[C@@H]2C=C[C@H]1C21CC1 (racemic) [Example 142, (5R*)—N^5-(2-Chloro-pyrimidin-5-yl)-(6R*)—N^6-(4-pyrrolidin-1-yl-butyl)-(4S*,7R*)-[4,7-ethenylene-spiro[2.4]heptane]-5,6-dicarboxamide] | 182 | 1330 |
| O=C(NCCCCN1CCCC1)[C@H]1[C@H](C(=O)NCc2cccc(Br)c2)[C@@H]2C=C[C@H]1C21CC1 (racemic) [Example 143, (5R*)—N^5-(3-Bromophenyl-methyl)-(6R*)—N^6-(4-pyrrolidin-1-yl-butyl)-(4S*,7R*)-[4,7-ethenylene-spiro[2.4]heptane]-5,6-dicarboxamide] | 94 | 2060 |
| O=C(NCCCCN1CCCC1)[C@H]1[C@H](C(=O)Nc2nc3ccccc3s2)[C@@H]2C=C[C@H]1C21CC1 (racemic) [Example 144, (5R*)—N^5-(Benzothiazol-2-yl)-(6R*)—N^6-(4-pyrrolidin-1-yl-butyl)-(4S*,7R*)-[4,7-ethenylene-spiro[2.4]heptane]-5,6-dicarboxamide] | 324 | 2270 |
| CC(C)(C)c1cc(NC(=O)[C@H]2[C@H](C(=O)NCCCCN3CCCC3)[C@H]3C=C[C@@H]2C32CC2)no1 (racemic) [Example 145, (5R*)—N^5-(5-tert-Butyl-isoxazol-3-yl)-(6R*)—N^6-(4-pyrrolidin-1-yl-butyl)-(4S*,7R*)-[4,7-ethenylene-spiro[2.4]heptane]-5,6-dicarboxamide] | 647 | 3650 |
| Cc1nsc2ccc(NC(=O)[C@H]3[C@H](C(=O)NCCCCN4CCCC4)[C@H]4C=C[C@@H]3C43CC3)cc12 (racemic) [Example 146, (5R*)—N^5-(3-Methyl-benzo[d]isothiazol-5-yl)-(6R*)—N^6-(4-pyrrolidin-1-yl-butyl)-(4S*,7R*)-[4,7-ethenylene-spiro[2.4]heptane]-5,6-dicarboxamide] | 337 | 4420 |
| O=C(NCCCCN1CCCC1)[C@H]1[C@H](C(=O)Nc2ccc3[nH]ccc3c2)[C@@H]2C=C[C@H]1C21CC1 (racemic) [Example 147, (5R*)—N^5-(1H-Indol-5-yl)-(6R*)—N^6-(4-pyrrolidin-1-yl-butyl)-(4S*,7R*)-[4,7-ethenylene-spiro[2.4]heptane]-5,6-dicarboxamide] | 837 | 7410 |
| O=C(NCCCCN1CCCC1)[C@H]1[C@H](C(=O)Nc2nc3ccc(F)cc3s2)[C@@H]2C=C[C@H]1C21CC1 (racemic) [Example 148, (5R*)—N^5-(6-Fluoro-benzothiazol-2-yl)-(6R*)—N^6-(4-pyrrolidin-1-yl-butyl)-(4S*,7R*)-[4,7-ethenylene-spiro[2.4]heptane]-5,6-dicarboxamide] | 226 | 7600 |
| CCC(CC)CNC(=O)[C@H]1[C@H](C(=O)NCCCCN2CCCC2)[C@H]2C=C[C@@H]1C21CC1 (racemic) [Example 149, (5R*)—N^5-(2-Ethyl-butyl)-(6R*)—N^6-(4-pyrrolidin-1-yl-butyl)-(4S*,7R*)-[4,7-ethenylene-spiro[2.4]heptane]-5,6-dicarboxamide] | 691 | 8090 |
| O=C(NCCCCN1CCCC1)[C@H]1[C@H](C(=O)Nc2nc(-c3ccc(Cl)cc3)cs2)[C@@H]2C=C[C@H]1C21CC1 (racemic) [Example 150, (5R*)—N^5-(4-(4-Chlorophenyl)-thiazol-2-yl)-(6R*)—N^6-(4-pyrrolidin-1-yl-butyl)-(4S*,7R*)-[4,7-ethenylene-spiro[2.4]heptane]-5,6-dicarboxamide] | 110 | 8440 |
| O=C(NCCCCN1CCCC1)[C@H]1[C@H](C(=O)Nc2cccc3nonc23)[C@@H]2C=C[C@H]1C21CC1 (racemic) [Example 151, (5R*)—N^5-(Benzo[2,1,3]oxadiazol-4-yl)-(6R*)—N^6-(4-pyrrolidin-1-yl-butyl)-(4S*,7R*)-[4,7-ethenylene-spiro[2.4]heptane]-5,6-dicarboxamide] | 714 | 9120 |
| CC(C)(C)c1csc(NC(=O)[C@H]2[C@H](C(=O)NCCCCN3CCCC3)[C@H]3C=C[C@@H]2C32CC2)n1 (racemic) [Example 152, (5R*)—N^5-(4-tert-Butyl-thiazol-2-yl)-(6R*)—N^6-(4-pyrrolidin-1-yl-butyl)-(4S*,7R*)-[4,7-ethenylene-spiro[2.4]heptane]-5,6-dicarboxamide] | 150 | 9630 |
| O=C(NCCCCN1CCCC1)[C@H]1[C@H](C(=O)Nc2nc(-c3ccccc3)ns2)[C@@H]2C=C[C@H]1C21CC1 (racemic) [Example 153, (5R*)—N^5-(3-Phenyl-[1,2,4]thiadiazol-5-yl)-(6R*)—N^6-(4-pyrrolidin-1-yl-butyl)-(4S*,7R*)-[4,7-ethenylene-spiro[2.4]heptane]-5,6-dicarboxamide] | 91 | 9890 |
